# Measured values published in patent publication US20120142750A1, “INDOLEAMINE 2,3-DIOXYGENASE PATHWAYS IN THE GENERATION OF REGULATORY T CELLS” (Regents of the University of Minnesota, priority 2005, published 2012).
# “Also recorded” adds a separate entry of the source.
# Assays:
# [1] = test system: PDCs and allogeneic naive CD4+ T cells; test: In vitro priming of naive CD4+ T cells by allogeneic PDCs: CD4+CD25+Foxp3+ Treg generation (flow cytometry); type: cell-based, human; conditions: added to CpG ODN-PDC/naive CD4+ T cell priming cultures; day 7; 1MT 250 μM, Abs 0.1-10 μg/ml
# Source text: PDC, B, and T cell isolation. Human PBMC were isolated under IRE-approved protocols from apheresis products of healthy blood donors (Memorial Blood Centers of Minnesota, Minneapolis, Minn.) by Ficoll-Paque density gradient centrifugation. Plasmascytoid dendritic cells (PDCs) were isolated from PBMC using BDCA-4 cell isolation kits and the MACS system, followed by staining and sorting to collect purified Lin-CD11c-CD123+ PDCs, as reported previously (Moseman et al., J Immunol 2004; 173:4433-4442). […] cells were isolated from PBMC using CD4 T cell isolation kits followed by positive selection with CD45RA microbeads. […] B cells were isolated from PBMC with CD19 microbeads and the MACS system to greater than 98% purity of CD19+ B cells. All cell isolations kits and microbeads were from Miltenyi Biotec (Bergisch Gladbach, Germany). Reagents. Phosphorothioate-modified type-A CpG ODN 2216: […] NO:2), type-B CpG ODN 2006: […] NO:3) (sequences are shown 5'-3'; small letters represent phosphorothioate linkage; capital letters represent phosphodiester linkage 3' of the base; bold represents CpGdinucleotides) were from Integrated DNA Technologies (Coralville, Iowa), diluted in PBS, and used at a final concentration of 1 microgran per milliliter (μg/ml). […] Kynurenine (L-KYN, Sigma-Aldrich) was used at a final concentration of 50 μM. In vitro priming of naive CD4+ T cells. CD4+CD45RA+ naive T cells were primed with allogeneic PDCs or irradiated B cells (30 Gy) at a 10:1 ratio (e.g., 2×10^6 naive CD4+ T cells plus 2×105 PDCs per well in 24-well plates) with ODN 2216 or ODN 2006 present in RPMI 1640 medium supplemented with 10% human AB serum. 1 MT and/or KYN were added into CpG ODN-PDC or CpG ODN-B cell mediated naive CD4+ T cell priming cultures as indicated. […] After 7 days, primed T cells in cultures were harvested, assessed for their surface phenotype, intracellular Foxp3 expression, and their function in MLR assays. […] Mean fluorescence intensity (MFI) and positive cell percentages of stained cells were determined by flow cytometry.
# OT-I and A1 T cells = test: Bystander-suppression assays (TDLN IDO+ DCs, OT-I, Tregs, A1 bystander cells); type: cell-based, mouse
# Protocol: Isolation of tumor-draining lymph node DCs.
# Bystander-suppression assays. All experiments were repeated 3-5 times unless otherwise indicated. OT-I cells were sorted as CD8^+ spleen cells, gated on the CD11c^NEGB220^NEG fraction to exclude DCs. Sorted DCs from TDLN were mixed with 1×10^5 responder cells at a 1:40 ratio in V-bottom culture wells (Nunc). […] Sorted CD4^+ A1 cells (1×10^5) and CD11c^+ DCs (1:40 ratio) from normal CBA spleen were added as bystander cells. […] For transwell assays, 96-Multiwell insert plates (1 uM pore size, BD Falcon) were used and the number of cells in all groups was doubled.
# Feeder layer. Plasmacytoid DCs and Tregs have been reported to require survival factors to maintain viability and function in vitro.
# Readouts for T cell proliferation. […] After 72 hours, assays were stained for CD4 vs CD8 and CFSE fluorescence analyzed gated on CD4^+ (A1) and CD8^+ (OT-I) populations.
# Anti-CD3 proliferation and preactivation assays. […] For pre-activation studies, 2×10^4 Tregs were cultured with 1×10^5T-depleted spleen cells plus 0.1 ug/ml αCD3 antibody and 200 U/ml IL-2 (R&D Systems) for 48 hours.
# [2] = test system: Tregs from draining lymph nodes; test: Adoptive transfer of TDLN DCs and ex-vivo Treg assay; type: in vivo, mouse; conditions: sustained-release pellets; Tregs isolated after four days
# Source text: Adoptive transfer and ex-vivo Treg assay. The adoptive transfer model has been previously described (Munn et al., Immunit), 2005; 22:633-642; and Munn et al., J. Clin. Invest. 2004a; 114; 280-290). Briefly, DCs were sorted from TDLNs (total CD11c^+ cells), pulsed with […] (SEQ ID NO:1) peptide, and 5×10^4 DCs injected into anteriomedial thigh. For studies measuring ex vivo Treg suppressor activity, the recipient mice were pre-loaded with 5×10^6 sorted CD8^+ T-I cells. After four days, the inguinal LNs draining the site of DC injection were removed, and the CD4^+CD25^+ Tregs were isolated by FACS sorting. A titration of Tregs was added to readout assays, comprising CD4^+ A1 cells, CBA DCs, feeder layer, and H—Y peptide, all as described above. For CFSE proliferation studies, CD8^+ OT-I (wild-type or GCN2-KO background) were sorted, labeled with CFSE, and 5×10^6 cells injected intravenously into wild-type or GCN2-KO recipients. OVA-pulsed DCs from TDLNs were injected as above, and the inguinal (draining) LNs harvested after four days. LN cells were analyzed by FACS for CD8 vs 1B11 vs CFSE.
structure (smiles),measurement,setting,value
"Cn1cc(C[C@@H](N)C(=O)O)c2ccccc21 [Inhibitor 1MT, 1-methyl-D-tryptophan]","PDC-induced CD4+CD25+Foxp3+ Treg generation, effect of added agent",[1],significantly reduced
same,Treg-mediated suppression of bystander cells when IDO blocked,"OT-I and A1 T cells; 200 uM 1MT, without αCD3 mitogen",no suppression; also recorded: no spontaneous suppressor activity
same,αCD3-induced suppression in transwell experiments,"OT-I and A1 T cells; 10-fold more Tregs, αCD3 mitogen added",not blocked
same,suppression of bystander cells by Tregs in transwell chambers,"OT-I and A1 T cells; transwell, Tregs with IDO+ DCs in lower chamber",abrogated
same,ex vivo suppressor activity of Tregs from recipient mice given IDO+ DCs,[2],did not develop ex vivo suppressor activity
